Source: ChEMBL document CHEMBL1156694, “In silico screening of HIV-1 non-nucleoside reverse transcriptase and protease inhibitors” (Eur J Med Chem, 2008)

Key:
Protease = Protease (Human immunodeficiency virus 1, UniProt Q9YQ12); experiment: Inhibition of HIV1 protease
[1] = Inhibition of HIV reverse transcriptase; design: species or system Human immunodeficiency virus
[2] = Inhibition of HIV protease; design: species or system Human immunodeficiency virus

Protease, sequence (Q9YQ12 whole entry): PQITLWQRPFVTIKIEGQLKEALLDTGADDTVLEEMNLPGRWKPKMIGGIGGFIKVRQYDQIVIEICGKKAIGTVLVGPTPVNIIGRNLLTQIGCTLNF

SMILES | IC50 [1] | further results
Cc1c(O)cccc1C(=O)N[C@@H](Cc1ccccc1)[C@H](O)CN(CC(C)C)S(=O)(=O)c1ccc2ncsc2c1 | – | IC50 (Protease): < 0.01 µM
CC(C)n1nc(COC(N)=O)c(Cc2ccncc2)c1Sc1cc(Cl)cc(Br)c1 | 0.032 µM | –
C=CCn1c(CSc2nc3ccccc3s2)nnc1SCC(=O)NCc1cccnc1 | < 100 µM | –
CC(C)(C)OC(=O)N[C@@H](Cc1ccccc1)[C@@H](O)[C@@]1(Cc2ccccc2)NC=C([C@H]2c3ccccc3C[C@@H]2O)C1=O | – | IC50 [2]: 0.012 µM

Now from value to compound, other results behind:

IC50 [1] | SMILES | further results
0.005 µM | Cc1cc(C)c(-n2nnnc2SCC(=O)Nc2ccccc2Cl)c(C)c1 | –
0.05 µM | CCOC(=O)Cc1nnc(NC(=O)[C@@H](CC)Sc2nnnn2-c2ccccc2)s1 | –
